Tested on: Eimeria tenella
Test: Anticoccidial test in chickens orally inoculated with sporulated oocysts of Eimeria tenella (anticoccidial index, ACI)
Assay type: in vivo
Settings: for Lesion value: cecum, 7th day after infection; for Oocyst value: converted according to Table 2; for Clinical symptoms (bloody stool): after infection
Excerpt: Male chicks from layer aged 1 day were selected and raised to 12-day-old. Each was weighed, while excluding thin or overweight individuals, healthy chickens with individual weight differences of less than 10 g were selected, and randomly divided into thirteen groups with each group including thirty chickens. Among them, ten groups were used as drug groups, one group as a model group, one group as a diclazuril group, and one group as a blank control group. Each chicken aged 12 days of the drug groups was subject to drug administration through mixing with feed, while that of the diclazuril group was administrated though drinking water. Each chicken aged 14 days in the drug groups, the diclazuril group and the model group was orally inoculated with 1.0×10^4 sporulated oocysts of Eimeria tenella. Each experimental chicken in all groups was free to feed and drink water until the test was over on the seventh day.
The anticoccidial index (ACI) criteria were calculated by
the calculation formula of Merck Corporation (USA), that is:
ACI=(relative weight gain rate+survival rate)×100−(lesion value+oocyst value).
Among them, the relative weight gain rate was calculated by
weighing each chicken at the beginning and end of the test, respectively, to calculate the average and relative weight gain rates. Relative weight gain rate=(test group weight gain rate/blank control group weight gain rate)×100%.
The survival rate was calculated by
recording the number of dead chickens in each group, performing an autopsy to determine the cause of death, and calculating the survival rate. Survival rate=(number of chickens alive at the end of the test/number of chickens in the test group)×100%
The lesion value was calculated by
slaughtering each chicken on the 7th day after infection to take the cecum (as shown in FIG. 5-6), and scoring the intestinal lesion of each chicken according to the lesion scoring method designed by […] and Reid (1970), and converting the lesion score into the lesion value.
Lesion scoring: (in case of lesion inconsistence between both sides of cecum, the more severe shall prevail):
0 point: no macroscopic lesions;
1 point: there are a few of petechiae scattered in the cecal wall, the cecal wall is not thickened, and the contents therein are normal;
2 points: the lesion number is more, the cecum contents are obviously bloody, the cecal wall is slightly thickened, and the contents therein are normal;
3 points: there is a lot of blood or there is a cecum core (blood clot or off-white cheese-like banana-shaped blocks) in the cecum, the cecal wall is obviously thickened, and the feces contents in the cecum are poor;
4 points: the cecum swells due to being full of a large amount of blood or cecum core with or without fecal residue, and it is also scored 4 points when the chicken dies for coccidiosis.
Lesion value (0-40)=average lesion score (0-4) for each test group×10
The oocyst value and the relative oocyst production (ROP) were calculated by collecting the chicken feces of each group, counting the number of oocysts in the feces according to McMaster counting, calculating the number of oocysts per gram of feces of each group, and obtaining the oocyst value by conversion according to Table 2.
Relative oocyst production (ROP)=(average oocyst production in the test group/average oocyst production in the model group)×100%. ROP≥15%, resistant to drugs; ROP<15%, no drug resistance.
The criteria for determining the drug efficacy were: ACI>180, high efficacy against coccidiosis; 160<ACI<180, medium efficacy against coccidiosis; 120<ACI<160, low efficacy against coccidiosis; ACI<120, inefficacy against coccidiosis.
Male chicks from layer aged 1 day were selected and raised to 12-day-old. Each was weighed, while excluding thin or overweight individuals, healthy chickens with individual weight differences of less than 10 g were selected, and randomly divided into 6 groups with each group including thirty chickens. […]

[1] = Example 2, Drug groups 1, 2 5 kg/ton in feed, Drug group 3 1:400 drinking water, diclazuril 0.2 ml/L
[2] = Example 3, Drug groups 5 kg/ton in feed, diclazuril 0.2 ml/L drinking water

With `N#CC(c1ccc(Cl)cc1)c1c(Cl)cc(-n2ncc(=O)[nH]c2=O)cc1Cl` (stereo not drawn) [Diclazuril] the “Effect against avian coccidiosis (conclusion)” value (Example 1) was “high therapeutic effect”, the “Clinical symptoms (bloody stool, food intake)” value (Example 1, 4th to 6th day after infection) was “no bloody stool” and the “Bloody stool (feces observation)” value (Example 1, 5th day after Eimeria challenge, partially mixed with blood / a large amount of feces mixed with blood / bloodless) was “bloodless”. The ACI value (Example 1, ACI=(relative weight gain rate+survival rate)×100−(lesion value+oocyst value), herbs 5 kg/ton in feed, diclazuril 0.2 ml/L drinking water) was 201.2, the “Relative oocyst production (ROP)” value (Example 1, average oocyst production relative to model group, herbs 5 kg/ton in feed, diclazuril 0.2 ml/L drinking water) was 0.0% and the Lesion value (Example 1, lesion value (0-40) = average lesion score ×10, herbs 5 kg/ton in feed, diclazuril 0.2 ml/L drinking water) was 0.0. For the same compound, the “Relative weight gain rate” value (Example 1, chickens, 1.0×10^4 oocysts at 14 days of age, herbs 5 kg/ton mixed with feed, diclazuril 0.2 ml/L drinking water, 9 days, relative to blank control) was 101.2%, the Survival rate (Example 1, chickens, 1.0×10^4 oocysts, herbs 5 kg/ton in feed, diclazuril 0.2 ml/L drinking water, 9 days) was 100% and the “Criteria (drug efficacy by ACI)” value (Example 1, herbs 5 kg/ton in feed, diclazuril 0.2 ml/L drinking water) was “High (ACI>180, high efficacy against coccidiosis)”. The Oocyst value (Example 1, oocysts per gram of feces relative to model group, herbs 5 kg/ton in feed, diclazuril 0.2 ml/L drinking water) was 0, the “Effect against avian coccidiosis (conclusion)” value (Example 2) was “high therapeutic effect” and the ACI value [1] was 198.9. The “Criteria (drug efficacy by ACI)” value [1] was “High (ACI>180, high efficacy against coccidiosis)”, the Survival rate (Example 2, Drug groups 1, 2 5 kg/ton in feed, Drug group 3 1:400 drinking water, diclazuril 0.2 ml/L drinking water) was 100% and the “Clinical symptoms (bloody stool)” value (Example 2) was “no bloody stool”. For the same compound, the Lesion value [1] was 0, the “Relative weight gain rate” value (Example 2, chickens, 1.0×10^4 oocysts, Drug groups 1, 2 5 kg/ton in feed, Drug group 3 1:400 drinking water, diclazuril 0.2 ml/L drinking water, 9 days) was 98.9% and the Oocyst value [1] was 0. For the same compound, the “Relative oocyst production (ROP)” value (Example 2, relative to model group, Drug groups 1, 2 5 kg/ton in feed, Drug group 3 1:400 drinking water, diclazuril 0.2 ml/L) was 0%, the ACI value [2] was 198.4 and the “Criteria (drug efficacy by ACI)” value [2] was “High (ACI>180, high efficacy against coccidiosis)”. The Survival rate [2] was 100%, the “Clinical symptoms (bloody stool)” value (Example 3) was “no bloody stool” and the Lesion value [2] was 0. For the same compound, the “Relative weight gain rate” value (Example 3, chickens, 1.0×10^4 oocysts, Drug groups 1-3 5 kg/ton in feed, diclazuril 0.2 ml/L drinking water, 9 days) was 98.4%, the Oocyst value [2] was 0 and the “Relative oocyst production (ROP)” value (Example 3, relative to model group, Drug groups 5 kg/ton in feed, diclazuril 0.2 ml/L drinking water) was 0%.

— US20230226012A1, “USE OF USNIC ACID, A SALT OF USNIC ACID, OR A FORMULATION THEREOF IN THE PREPARATION OF ANTI-AVIAN COCCIDIOSIS DRUGS OR FEED ADDITIVES” (priority 2022, published 2023)
